This note sets out measurements from ChEMBL document CHEMBL1134030, “Synthesis and structure-activity relationships of guanine analogues as phosphodiesterase 7 (PDE7) inhibitors” (Bioorg Med Chem Lett, 2001).

As usually defined, the inhibition is the relative decrease from the control value, in per cent. As a reminder, the IC50 is the concentration needed to halve the response being measured. A low value points to greater potency.

Activity calls are given as the source filed them.

Assay [1] concerns the target T1, Phosphodiesterase 4 (Homo sapiens) (UniProt P27815+Q08499+Q07343+Q08493). Kind of assay: Inhibition of guinea pig Phosphodiesterase 4 at 10 uM. The assay is classed as protein assay. The following applies: Cavia porcellus, target entry is the homologue from another species.
The target in assay [2] is T2, Phosphodiesterase 7 (Homo sapiens, UniProt Q13946+Q9NP56). Kind of assay: Inhibition of human Phosphodiesterase 7 of HUT-78 cells at 10 uM. The class given is cell-based.
The target in assay [3] is T3, Phosphodiesterase 3 (Homo sapiens) (UniProt Q14432+Q13370). Put plainly: Inhibition of guinea pig Phosphodiesterase 3 at 10 uM. The class given is protein assay. The following applies: Cavia porcellus, target entry is the homologue from another species.
For assay [4], the target named is T2, Phosphodiesterase 7. Put plainly: Inhibition of human Phosphodiesterase 7 of HUT-78 cells. The assay is classed as cell-based.
Assay [5] has as its target T1, Phosphodiesterase 4 (Homo sapiens). Put plainly: Inhibition of guinea pig Phosphodiesterase 4 at 10 uM (inactive). The class given is protein assay. Particulars: Cavia porcellus, target entry is the homologue from another species.
For assay [6], the target named is T2, Phosphodiesterase 7. Kind of assay: Inhibition of human Phosphodiesterase 7 of HUT-78 cells at 10 uM (inactive). The assay is classed as cell-based.
The target in assay [7] is T3, Phosphodiesterase 3 (Homo sapiens). Put plainly: Inhibition of guinea pig Phosphodiesterase 3 (PDE3) at 10 uM. Particulars: Cavia porcellus, target entry is the homologue from another species. The class given is protein assay.

T2 sequence (Q13946 whole entry, looked up): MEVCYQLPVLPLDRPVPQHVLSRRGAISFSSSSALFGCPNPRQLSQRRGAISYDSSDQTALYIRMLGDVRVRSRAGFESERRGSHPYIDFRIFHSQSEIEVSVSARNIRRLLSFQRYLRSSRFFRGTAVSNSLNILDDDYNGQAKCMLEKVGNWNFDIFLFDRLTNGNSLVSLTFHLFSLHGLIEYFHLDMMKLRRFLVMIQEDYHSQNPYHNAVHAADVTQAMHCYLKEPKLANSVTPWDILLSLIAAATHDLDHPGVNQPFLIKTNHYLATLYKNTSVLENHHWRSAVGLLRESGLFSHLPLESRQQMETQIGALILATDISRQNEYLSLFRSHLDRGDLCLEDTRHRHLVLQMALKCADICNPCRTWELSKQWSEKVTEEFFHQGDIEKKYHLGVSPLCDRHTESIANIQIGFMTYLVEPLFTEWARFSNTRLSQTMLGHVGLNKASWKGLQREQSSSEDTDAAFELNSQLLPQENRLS
T2 sequence (Q9NP56 whole entry, looked up): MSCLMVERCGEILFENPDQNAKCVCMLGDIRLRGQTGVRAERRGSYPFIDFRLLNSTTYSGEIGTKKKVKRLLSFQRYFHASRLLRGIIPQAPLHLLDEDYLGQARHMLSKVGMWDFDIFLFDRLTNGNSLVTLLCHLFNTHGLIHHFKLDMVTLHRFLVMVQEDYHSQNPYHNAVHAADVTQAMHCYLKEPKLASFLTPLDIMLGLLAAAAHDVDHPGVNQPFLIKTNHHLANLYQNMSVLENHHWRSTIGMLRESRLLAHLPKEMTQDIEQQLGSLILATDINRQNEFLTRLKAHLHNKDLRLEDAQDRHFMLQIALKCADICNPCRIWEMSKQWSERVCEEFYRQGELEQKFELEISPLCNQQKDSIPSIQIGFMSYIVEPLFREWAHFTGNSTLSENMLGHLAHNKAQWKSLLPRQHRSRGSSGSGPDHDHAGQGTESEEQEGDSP

`Nc1nc(O)c2nc(Br)n(C3CCc4ccccc43)c2n1` (centres undefined): the figures for the inhibition (in assay [1]; against Phosphodiesterase 7 [2]) were 27% and 22%, respectively.

`Nc1nc(O)c2nc(Br)n(C3CCCc4cccc(Br)c43)c2n1` (centres undefined): the inhibition turned out to be 10% in assay [1] and 14% in assay [3]. On Phosphodiesterase 7 [4], this compound displayed an IC50 of 1.31 µM.

`Oc1ncnc2c1ncn2C1CCCc2ccccc21` (centres undefined): the inhibition entry (in assay [5]; at Phosphodiesterase 7 [6]) was “inactive” in each case.

As for `Nc1nc(O)c2nc(Br)n(C3CCCc4ccccc43)c2n1` (centres undefined), the inhibition in assay [1] stood at 15%; in assay [7], 30%. Also, the IC50 at Phosphodiesterase 7 [4] was 4.88 µM.

For the compound `Nc1nc(O)c2nc(Br)n(C3CCCc4ccc([N+](=O)[O-])cc43)c2n1` (centres undefined), the figures for the inhibition in assay [1] and in assay [3] were 42% and 19%, respectively. On Phosphodiesterase 7 [4], this compound gave an IC50 of 2.31 µM.

In the case of `Nc1nc(O)c2nc(Br)n(C3CCCCc4ccc(F)cc43)c2n1` (centres undefined), the inhibition in assay [1] was 13%; on Phosphodiesterase 7 [2], 10%.

In assay [1], `COc1ccc2c(c1)C(n1c(Br)nc3c(O)nc(N)nc31)CCC2` (centres undefined) showed an inhibition of 20%. Besides, the IC50 at Phosphodiesterase 7 [4] was determined as 4.22 µM.

`Nc1nc(O)c2ncn(C3CCCc4ccccc43)c2n1` (centres undefined): the inhibition came out at 7% in assay [1] and 4% against Phosphodiesterase 7 [2].
